Test results as given in patent US20240374655A1, “INTESTINAL MICROBIOTA AND GVHD” (Memorial Sloan-Kettering Cancer Center, priority 2014, published 2024).
“Also recorded” adds a separate entry of the source.

Experiments:
[1] = Administration of SCFA to mitigate murine GVHD (preliminary experiments); assay type: in vivo, mice; conditions: via drinking water (butyrate also via enema); data not shown
Description: Preliminary experiments were done to test the impact of administration of SCFA on murine GVHD. […] Sodium acetate (150 mM) will be delivered via the drinking water of mice beginning 2 weeks prior to BMT. Mice will then be irradiated and transplanted with continued supplementation of sodium acetate. Outcomes that will be evaluated in mice include GVHD clinical scores, survival, and day 14 and 28 tissue pathology. Kaplan-Meier curves will display the overall survival for the two groups. In addition, the area under the curve (AUC) will summarize the weekly total GVHD score from the time of infusion to week 13 for each mouse. Mice will be euthanized to evaluate for pathological evidence of GVHD, as well as to quantify and characterize large intestinal Tregs and alloreactive effector T cells by flow cytometry on days 14 and 28.

[2] = Retrospective cohort of 283 allo-HSCT patients treated for neutropenic fever: GVHD-related mortality by antibiotic type; assay type: in vivo, human; conditions: compared to antibiotics with reduced activity against anaerobes (aztreonam, cefepime)
Excerpt: (§1) (A) A retrospective cohort was identified of 283 adult patients who received non-T cell depleted allo-HSCT at our center from 1994 to 2013 and received antibiotics for neutropenic fever. Patients were stratified by exposure to antibiotics with significant activity against anaerobes. Outcomes indicated were depicted by Kaplan-Meier plots and curves compared by the logrank test. (B to G) Six representative clinical cases with time courses depicted of fecal microbiota composition and administration of antibiotic treatments during the course of allo-HSCT. […] (H) Change in abundance of Clostridiales in paired fecal samples from patients undergoing allo-HSCT collected prior to and following treatment with the indicated antibiotics.
In one study, subjects analyzed retrospectively for impact of antibiotics on clinical outcomes consisted of 283 adult patients undergoing all-HSCT at Memorial Sloan Kettering Cancer Center (MSKCC) from 1994 to 2013. […]
GVHD was diagnosed clinically, confirmed pathologically by biopsy whenever possible, and classified according to historical consensus criteria as described previously (see Rowlings P A, Przepiorka D, Klein J P, et al. IBMTR Severity Index for grading acute graft-versus host disease: retrospective comparison with Glucksberg grade. Br J Haematol. 1997). […] Disease risk was determined according to the ASBMT RFI 2014 Disease Classification. […]

Clostridiales = assay: Change in Clostridiales abundance in paired stool samples of allo-HSCT patients before and after starting antibiotics; assay type: in vivo, human; conditions: before vs after starting the antibiotic; compared to aztreonam
Excerpt: as §1
For each stool specimen, DNA was purified using a phenol-chloroform extraction technique with mechanical disruption (bead-beating) based on a previously described protocol (60). Samples were analyzed using the 454 GS FLX Titanium platform to sequence the V1-V3 region of the bacterial 16S rRNA gene or were alternatively analyzed using the Illumina MiSeq platform to sequence the V4-V5 region of the 16S rRNA gene. Sequence data were compiled and processed using mothur version 1.34 (61), screened and filtered for quality (62). Operational taxonomic units (OTUs) were classified to the species level (63) using a modified form of the Greengenes reference database (64). Principal component analysis was performed upon a weighted and normalized Unifrac (65) distance matrix of OTU abundance in R software. Data from this study has been stored in the NCBI Sequence Read Archive (see url: www.ncbi.nlm.nih.gov/sra).
HSCT patients were on intestinal bacterial composition. In 2009, our center began to prospectively collect weekly stool samples from patients undergoing allo-HSCT. From this specimen bank, we identified paired stool samples collected from patients prior to as well as following initiation of specific antibiotics during the course of allo-HSCT. […]

[3] = test system: intestinal microbiota (Clostridiales, Enterococcus); assay: Flora composition (16S rRNA sequencing of stool) after antibiotic treatment of healthy mice; assay type: in vivo, C57BL/6 mice
Description: (§2) FIGS. 16A-16J Imipenem treatment, compared to aztreonam treatment, suppresses anaerobic commensals and elevates GVHD severity in mice. (A) Flora composition analysis using 16S rRNA sequencing prior to and after treatment with the indicated antibiotics in healthy C57BL/6 mice. Mice were treated with subcutaneous (SC) injections of each antibiotic twice a day for two days (500 mg/kg for pip/tazo and 100 mg/kg for others) and stool samples were collected the following day. Values represent mean±SEM (n=3-4). *, P<0.05; **, P<0.01; ****, P<0.0001. Data are representative of two independent experiments. (B to J) Lethally irradiated 129S1 recipients were transplanted with MHC matched C57BL/6 T-cell depleted bone marrow (TCD-BM) cells and 1×10^6 C57BL/6 T cells. Control mice received TCD-BM only. Recipients were treated with imipenem or aztreonam (100 mg/kg, SC, 3 times a week from day 10 to day 24 following allo-HSCT). (B) Comparison of overall survival, with combined data from three independent experiments (n=15-43). ****, P<0.0001. (C) Mice with GVHD treated with antibiotics were sacrificed on day 21 and GVHD histology scores in target organs were quantified by a blinded pathologist. Data are combined from three independent experiments (n=5-20). *, P<0.05. (D) Stool samples obtained from mice treated with imipenem or aztreonam similarly to those in B were collected on day 21 and analyzed by 16S rRNA gene sequencing, followed by principal coordinate analysis of weighted and normalized UniFrac distances. (E and F) Differential taxonomic abundance between aztreonam treated and imipenem treated recipients was analyzed by (E) linear discriminate analysis coupled with effect size measurements (LEfSe) and (F) by LEfSe projected as a cladogram. Data are representative from more than five independent experiments in D to F. (G and H) Comparisons of bacterial abundance at the phylogenetic levels of (G) order, and (H) genus are shown. Data are combined from 6 independent experiments (n=32-36). ***, P<0.001. (I) Stool samples collected from mice with GVHD treated with antibiotics were collected on day 21, and evaluated by metagenomic shotgun sequence analysis, comparison of bacterial species abundance determined by taxonomy. Numbers 1 through 6 along the x-axis represent the individual subjects. (J) Principal component analysis of quantification of sequence reads from KEGG gene orthologs comparing samples from mice treated with aztreonam and imipenem.
To further explore causality and mechanisms of the effects of antibiotics with anaerobic activity on GVHD, we turned to experiments in mice. […] Mice were treated by subcutaneous (SC) injections of each antibiotic twice a day for two days (500 mg/kg for pip/tazo and 100 mg/kg for others) and stool samples were collected, followed by 16S rRNA gene amplification and sequence analysis.

[4] = Antibiotic treatment in MHC-matched minor antigen-mismatched allo-HSCT GVHD model (C57BL/6 into 129S1); assay type: in vivo
Description: as §2, with “Data are representative from more than five independent experiments in D to F. (G and H) Comparisons of bacterial abundance at the phylogenetic levels of (G) order, and (H) genus are shown. Data are combined from 6 independent experiments (n=32-36). ***, P<0.001.” left out, “Numbers 1 through 6 along the x-axis represent the individual subjects.” left out
(A to G) Lethally irradiated 129S1 recipients were transplanted with C57BL/6 TCD-BM cells with 1×10^6 C57BL/6 T cells. […] (A) Colonic lamina propria-infiltrating leukocytes from recipients were analyzed on day 21 by flow cytometry. […] (C) Lamina propria-infiltrating leukocytes from the colon on day 21 were enriched for CD11b and CD11e simultaneously using a mixture of magnetic beads and IL-23 transcripts were quantified by real time PCR. […] (D) Immunofluorescent staining was used to quantify pSTAT3, CD3, and DAPI positive cells in colonic tissue collected on day 21. […]

[5] = metronidazole added to ciprofloxacin; cited from earlier work
[6] = 100 mg/kg SC twice a day for two days

## CC(=O)O [acetate]
[1]
  Benefit on murine GVHD: notable benefit

## piperacillin-tazobactam [pip/tazo]
[2]
  GVHD-related mortality: increased GVHD-related mortality
Clostridiales
  Change in Clostridiales abundance in stool of patients: significantly lower abundances of Clostridiales; also recorded: more severe loss
[3]; 500 mg/kg SC twice a day for two days
  Amplifiable bacterial DNA in stool: no amplifiable bacterial DNA

## C[C@@H](O)[C@H]1C(=O)N2C(C(=O)O)=C(SCCN=CN)C[C@H]12 [imipenem, imipenem-cilastatin]
[4]; 100 mg/kg SC 3 times a week from day 10, compared to aztreonam, within 2 weeks of starting treatment
  Mortality / overall survival: significantly increased mortality; also recorded: aggravated mortality
[4]; mouse, in vivo
  Bacteria past the colonic epithelial barrier: dissemination of bacteria past the colonic epithelial barrier
  GVHD pathology in skin, liver and small intestine: no significant differences
[2]
  GVHD-related mortality: increased GVHD-related mortality

## Cc1ncc([N+](=O)[O-])n1CCO [metronidazole]
[5]
  Acute GVHD: significant reduction in acute GVHD
Clostridiales
  Change in Clostridiales abundance in stool of patients: significantly lower abundances of Clostridiales
[3]; [6]
  Abundance of Clostridiales in stool: significantly reduced
  Abundance of Enterococcus in stool: increased
